Results from the supplement of paper PMC11061612.

What was measured:
Experiment in all cases: Bliss excess, mean over the matrix (fraction); higher = more synergy
[1] = test system: OE21 (Esophageal Squamous Cell Carcinoma)
How it was run: (§1)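 After 24 hours at 37°C and 5% CO2 in 1536-well plates, cells in DMEM/F12 or RPMI plus 10% FBS received two-drug dose matrices for 72 hours. Viability came from CellTiter-Glo 2.0 luminescence and was scaled as inhibition, anchored at 0 by vehicle wells and at 1 by blank wells. Combination Emax is taken as the second-highest inhibition in the matrix, and Bliss excess as the observed combination effect less EA + EB − EA·EB, with EA and EB the single-agent effects.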

[2] = test system: KS-1 (Glioblastoma)
How it was run: as §1

[3] = test system: FTC-133 (Thyroid Gland Carcinoma)
How it was run: as §1

[4] = test system: WSU-NHL (B-Cell Non-Hodgkin's Lymphoma)
How it was run: as §1

[5] = test system: A673 (Ewing's Sarcoma)
How it was run: as §1

[6] = test system: NCI-H2052 (Mesothelioma)
How it was run: as §1

[7] = test system: OV-56 (Ovarian Carcinoma)
How it was run: as §1

[8] = test system: GAMG (Glioblastoma)
How it was run: as §1

[9] = test system: SW1710 (Bladder Carcinoma)
How it was run: as §1

[10] = test system: SNU-449 (Hepatocellular Carcinoma)
How it was run: as §1

[11] = test system: NUGC-4 (Gastric Carcinoma)
How it was run: as §1

[12] = test system: MHH-CALL-2 (B-Lymphoblastic Leukemia)
How it was run: as §1

[13] = test system: Hs-746T (Gastric Carcinoma)
How it was run: as §1

[14] = test system: LNZTA3WT4 (Low Grade Glioma)
How it was run: as §1

[15] = test system: CAL-33 (Oral Cavity Carcinoma)
How it was run: as §1

[16] = test system: NCI-H1568 (Lung Adenocarcinoma)
How it was run: as §1

[17] = test system: YAPC (Pancreatic Carcinoma)
How it was run: as §1

[18] = test system: NCI-H2722 (Mesothelioma)
How it was run: as §1

[19] = test system: BE-13 (T-Lymphoblastic Leukemia)
How it was run: as §1

[20] = test system: KYAE-1 (Esophageal Adenocarcinoma)
How it was run: as §1

Structure (SMILES) | Bliss excess [1] | Bliss excess [2] | Bliss excess [3] | Bliss excess [4] | Bliss excess [5] | Bliss excess [6] | Bliss excess [7] | Bliss excess [8] | Bliss excess [9] | Bliss excess [10] | Bliss excess [11] | Bliss excess [12] | Bliss excess [13] | Bliss excess [14] | Bliss excess [15] | Bliss excess [16] | Bliss excess [17] | Bliss excess [18] | Bliss excess [19] | Bliss excess [20]
Cc1c2c(nn1C)CSCc1cc(n(C)n1)CSc1cc(c3ccccc3c1)OCCCc1c(C(=O)O)n(C)c3c-2c(Cl)ccc13 [AZD5991] + C=CCn1c(=O)c2cnc(Nc3ccc(N4CCN(C)CC4)cc3)nc2n1-c1cccc(C(C)(C)O)n1 [AZD1775] (first compound max 1 µM, partner max 1 µM) | -0.0135 | -0.0553 | 0.0172 | -0.0459 | 0.0002 | -0.0875 | 0.0126 | -0.0528 | -0.0257 | 0.0317 | -0.0128 | 0.0108 | -0.0096 | -0.0292 | -0.0275 | 0.0349 | 0.0258 | -0.016 | -0.0097 | -0.0078
Cc1c2c(nn1C)CSCc1cc(n(C)n1)CSc1cc(c3ccccc3c1)OCCCc1c(C(=O)O)n(C)c3c-2c(Cl)ccc13 [AZD5991] + CC1(C)CCC(CN2CCN(c3ccc(C(=O)NS(=O)(=O)c4ccc(NCC5CCOCC5)c([N+](=O)[O-])c4)c(Oc4cnc5[nH]ccc5c4)c3)CC2)=C(c2ccc(Cl)cc2)C1 [Venetoclax] (first compound max 1 µM, 7x7, partner max 1 µM) | 0.0182 | -0.0307 | -0.0233 | 0.0602 | 0.0666 | 0.0269 | 0.0077 | -0.0047 | -0.019 | -0.0286 | -0.0621 | 0.0043 | -0.0882 | 0.0364 | 0.0122 | -0.0334 | -0.0318 | -0.0733 | 0.106 | 0.0049
Cc1c2c(nn1C)CSCc1cc(n(C)n1)CSc1cc(c3ccccc3c1)OCCCc1c(C(=O)O)n(C)c3c-2c(Cl)ccc13 [AZD5991] + CN(C)CCCOc1ccc(-c2ccc3ncc4c(c3c2)n(C2CCOCC2)c(=O)n4C)cn1 [AZD0156] (first compound max 1 µM, 7x7, partner max 1 µM) | 0.0133 | -0.0619 | -0.0105 | -0.0375 | 0.0293 | -0.0027 | -0.0276 | 0.0339 | -0.0134 | -0.0243 | -0.0305 | 0.0053 | 0.0008 | -0.0135 | 0.0215 | -0.0091 | 0.0081 | -0.0302 | -0.0285 | -0.0009
Cc1c2c(nn1C)CSCc1cc(n(C)n1)CSc1cc(c3ccccc3c1)OCCCc1c(C(=O)O)n(C)c3c-2c(Cl)ccc13 [AZD5991] + C[C@@H]1COCCN1C2=NC(=NC(=C2)C3(CC3)[S@](=N)(=O)C)C4=C5C=CNC5=NC=C4 [AZD6738] (first compound max 1 µM, 7x7, partner max 10 µM) | 0.0157 | 0.0147 | 0.0969 | -0.0352 | 0.0077 | 0.039 | 0.0293 | 0.0116 | 0.0299 | 0.0175 | 0.02 | 0.0225 | 0.0423 | -0.0028 | 0.0008 | 0.0409 | 0.0715 | 0.0224 | 0.0135 | 0.0054
Cc1c2c(nn1C)CSCc1cc(n(C)n1)CSc1cc(c3ccccc3c1)OCCCc1c(C(=O)O)n(C)c3c-2c(Cl)ccc13 [AZD5991] + C[C@@H](Nc1cc(F)cc(F)c1)c1cc(C(=O)N(C)C)cc2c(=O)cc(N3CCOCC3)oc12 [AZD8186] (first compound max 1 µM, 7x7, partner max 3 µM) | 0.0258 | -0.0129 | -0.0065 | -0.0366 | 0.0129 | 0.0011 | 0.017 | -0.0458 | -0.0083 | -0.078 | -0.0056 | -0.0188 | 0.0106 | 0.0055 | -0.0099 | 0.0126 | -0.0159 | -0.0434 | -0.109 | -0.0125
Cc1c2c(nn1C)CSCc1cc(n(C)n1)CSc1cc(c3ccccc3c1)OCCCc1c(C(=O)O)n(C)c3c-2c(Cl)ccc13 [AZD5991] + Cc1cc2ncnn2cc1Nc1ncc2c(n1)n(C1CCOCC1)c(=O)n2C [AZD7648] (first compound max 1 µM, 7x7, partner max 10 µM) | -0.0387 | -0.0797 | -0.0322 | -0.0594 | -0.0515 | -0.0556 | -0.0059 | -0.0321 | -0.0209 | -0.0453 | -0.0498 | -0.011 | -0.0784 | -0.0144 | -0.0341 | -0.0717 | 0.0003 | -0.0785 | 0.0066 | -0.0285
Cc1c2c(nn1C)CSCc1cc(n(C)n1)CSc1cc(c3ccccc3c1)OCCCc1c(C(=O)O)n(C)c3c-2c(Cl)ccc13 [AZD5991] + Cn1cnc2c(F)c(Nc3ccc(Br)cc3Cl)c(C(=O)NOCCO)cc21 [Selumetinib] (first compound max 1 µM, 7x7, partner max 3 µM) | 0.0286 | -0.0456 | 0.0108 | -0.0489 | 0.12 | 0.0301 | 0.0034 | 0.0368 | -0.0214 | -0.0846 | 0.0356 | 0.111 | -0.018 | 0.0046 | 0.0814 | 0.102 | -0.003 | 0.0081 | 0.0415 | -0.0155
NC1(C(=O)N[C@@H](CCO)c2ccc(Cl)cc2)CCN(c2ncnc3[nH]ccc23)CC1 [Capivasertib] + CC(=O)c1c(C)c2cnc(Nc3ccc(N4CCNCC4)cn3)nc2n(C2CCCC2)c1=O [Palbociclib] (first compound max 10 µM, 7x7, partner max 10 µM) | 0.0379 | -0.0656 | -0.011 | -0.0671 | -0.018 | -0.0171 | 0.0301 | 0.0237 | -0.009 | 0.001 | -0.0345 | -0.0739 | -0.0322 | 0.0103 | 0.0918 | -0.124 | 0.0043 | -0.0436 | -0.0485 | -0.0168
NC1(C(=O)N[C@@H](CCO)c2ccc(Cl)cc2)CCN(c2ncnc3[nH]ccc23)CC1 [Capivasertib] + CC(C)n1c(=O)n(C)c2cnc3cc(F)c(-c4ccc(OCCCN5CCCCC5)nc4)cc3c21 [AZD1390] (first compound max 10 µM, 7x7, partner max 0.3 µM) | -0.0474 | -0.0969 | -0.0486 | -0.0418 | -0.0885 | -0.095 | -0.044 | -0.0455 | -0.0482 | -0.038 | -0.0524 | -0.0439 | -0.0445 | -0.0189 | -0.0018 | -0.0852 | -0.0105 | -0.0512 | -0.0455 | -0.0081
NC1(C(=O)N[C@@H](CCO)c2ccc(Cl)cc2)CCN(c2ncnc3[nH]ccc23)CC1 [Capivasertib] + CCN(CCO)CCCOc1ccc2c(Nc3cc(CC(=O)Nc4cccc(F)c4)[nH]n3)ncnc2c1 [AZD2811] (first compound max 10 µM, 7x7, partner max 1 µM) | 0.0098 | 0.0374 | 0.0005 | -0.0697 | -0.0158 | 0.0076 | -0.0077 | -0.0737 | -0.0507 | -0.0166 | -0.0543 | -0.0244 | -0.0265 | -0.0551 | -0.0564 | -0.0235 | 0.0161 | -0.0044 | -0.0125 | 0.0023
NC1(C(=O)N[C@@H](CCO)c2ccc(Cl)cc2)CCN(c2ncnc3[nH]ccc23)CC1 [Capivasertib] + COc1nnc2ccc(N3CCC(c4ccc(OCCN5CCN(C)C(=O)[C@H]5C)cc4)CC3)nn12 [AZD5153] (first compound max 10 µM, 7x7, partner max 1 µM) | 0.0333 | -0.0211 | 0.0923 | -0.0923 | -0.0386 | 0.0133 | 0.0506 | 0.039 | 0.0751 | 0.0058 | -0.0333 | -0.03 | 0.0169 | 0.0305 | 0.051 | -0.0032 | 0.007 | 0.0016 | -0.0281 | 0.0352
NC1(C(=O)N[C@@H](CCO)c2ccc(Cl)cc2)CCN(c2ncnc3[nH]ccc23)CC1 [Capivasertib] + C[C@@H]1COCCN1C2=NC(=NC(=C2)C3(CC3)[S@](=N)(=O)C)C4=C5C=CNC5=NC=C4 [AZD6738] (first compound max 10 µM, 7x7, partner max 10 µM) | -0.0499 | -0.0366 | -0.042 | -0.05 | 0.0077 | -0.0657 | -0.032 | -0.0558 | -0.0403 | -0.0057 | -0.0488 | -0.0076 | -0.0747 | -0.027 | -0.0246 | -0.0216 | 0.0093 | -0.0119 | -0.0877 | 0.0014
